Earlier results in patent US20090054331A1, “HIGH TEMPERATURE STABLE PEPTIDE FORMULATION” (priority 2007, published 2009).

Assays:
[1] = in vivo
[2] = system: human osteoblasts
[3] = system: human dental pulp cells; details: in vitro
[4] = system: human dental defects; details: clinical trial

TDLQERGDNDISPFSGDGQPFKD [AC-100]
bone formation activities [1]: has shown bone formation activities in vivo | effect on proliferation, differentiation and mineralization of human osteoblasts [2]: stimulate proliferation, differentiation, and mineralization | proliferation of human dental pulp cells [3]: stimulation of the proliferation | formation of new dentin [4]: formation of new dentin
